Assay results published in patent US20120264231A1, “ASSAY FOR ORAI CALCIUM CHANNEL REGULATORS” (IMMUNE DISEASE INSTITUTE, INC., priority 2009, published 2012).

How the values were obtained:
[1] = Pichia membrane flotation assay, control membranes; assay type: binding, Pichia pastoris; conditions: membranes from yeast not expressing ORAI1
Protocol: A membrane flotation assay was used to evaluate binding of these recombinant STIM 1 proteins to ORAI1. For these experiments ORAI1 (65-301) was expressed, an N-terminally truncated ORAI1 protein that forms functional Ca^2+ channels in mammalian cells (Li, Z., et al., J Biol Chem 282, 29448-29456 (2007)), in the yeast Pichia pastoris. Microsomal membranes were prepared from P pastoris expressing ORAI1 (65-301), layered at the bottom of a discontinuous sucrose gradient, and centrifuged. After centrifugation, the recombinant ORAI 1 was recovered near the top of the gradient in the fraction visually identified as containing membranes (FIG. 2A), as expected for an integral membrane protein.
Microsomal membranes, prepared from yeast Pichia pastoris expressing human ORAI1 (65-301) with an N-terminal FLAG tag and the substitutions E106Q and N223A, were resuspended in 10 mM HEPES pH 7.4, 150 mM NaCl, 1 mM DTT, 10% glycerol, briefly sonicated, brought to 25 mM EDTA by addition of EDTA from a concentrated stock, layered over a 0.5 M sucrose cushion, and centrifuged at 149,000×g for 1 h at 4° C. in a Beckman airfuge. […] FLAG-tagged ORAI1 was detected using anti-FLAG M2 monoclonal antibody (Sigma) and His-tagged STIM1^CT fragments were detected using anti-His-Tag monoclonal antibody (27E8 clone, Cell Signaling Technology).

ORAI1 (R91W) = molecular target: T1, ORAI1 (R91W) (Homo sapiens, UniProt Q96D31, R91W); assay: Cameleon D3 cpV intravesicular Ca^2+ assay, vesicles with ORAI1 (R91W); assay type: biochemical; conditions: vesicles containing ORAI1 (R91W)
T1 construct: the ORAI functional fragment is ORAI1 (65-301), ORAI1 (65-87), or full length ORAI1; made in house; host or cells: S. cerevisiae NY17 (sec6-4), isolated secretory vesicles
Excerpt: Confirmation that Ca^2+ release from the vesicles was due to gating of the ORAI 1 channel was sought. […] It was concluded that the in vitro assay reflects STIM 1-dependent gating of ORAI1 and Ca^2+ flux through the ORAI1 channel pore.
The yeast expression vector pBEVY-GU60 allows for simultaneous expression of two transgenes by means of the bidirectional GAL1-10 promoter. The FRET-based calcium sensors D3 cpV and D4 cpV53 were fused at the N-terminus with the S. cerevisiae α-mating factor secretion signal (Bitter, G. A., et al., Proc Natl Acad Sci USA 81, 5330-5334 (1984)), which directs proteins into the secretory pathway, and introduced into pBEVY-GU in the following way. Vector pPIC9 (Invitrogen) served as template for PCR amplification of the α-mating factor secretion signal (5′ primer: […] (SEQ ID NO: 2); 3′ primer: […] (SEQ ID NO: 3)), introducing an EcoRI site at the 5′ end, and a sequence complementary to that encoding the N-terminus of the calcium sensor at the 3′ end. DNA encoding the N-terminal portion of the calcium sensor D3 cpV, comprising CFP, was amplified by PCR (5′ primer: […] (SEQ ID NO: 4); 3′ primer: […] (SEQ ID NO: 5)), introducing an SphI site followed by a stop codon and a NotI site at the 3′ end of the resulting DNA fragment. […]

T1 sequence (Q96D31 2-301 R91W): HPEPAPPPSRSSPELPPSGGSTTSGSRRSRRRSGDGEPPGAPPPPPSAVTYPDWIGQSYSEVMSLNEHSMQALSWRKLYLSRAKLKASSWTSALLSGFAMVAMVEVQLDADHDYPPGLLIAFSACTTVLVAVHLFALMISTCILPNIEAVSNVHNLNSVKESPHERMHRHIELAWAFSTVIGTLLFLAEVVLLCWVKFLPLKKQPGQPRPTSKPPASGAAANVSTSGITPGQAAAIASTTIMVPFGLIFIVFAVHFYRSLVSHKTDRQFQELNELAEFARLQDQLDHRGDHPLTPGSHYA

Substance: STIM1^CT: cytoplasmic region of STIM1, mouse residues 233-685, His-tagged recombinant protein expressed in E coli
- position in gradient with control membranes [1]: remained at the bottom of the gradient
- Ca^2+ release from vesicles (ORAI1 (R91W)): did not elicit Ca^2+ release
